Experiment [1] deals with T1, Toll-like receptor 7 (Homo sapiens) (UniProt Q9NYK1).
T1 sequence (whole entry): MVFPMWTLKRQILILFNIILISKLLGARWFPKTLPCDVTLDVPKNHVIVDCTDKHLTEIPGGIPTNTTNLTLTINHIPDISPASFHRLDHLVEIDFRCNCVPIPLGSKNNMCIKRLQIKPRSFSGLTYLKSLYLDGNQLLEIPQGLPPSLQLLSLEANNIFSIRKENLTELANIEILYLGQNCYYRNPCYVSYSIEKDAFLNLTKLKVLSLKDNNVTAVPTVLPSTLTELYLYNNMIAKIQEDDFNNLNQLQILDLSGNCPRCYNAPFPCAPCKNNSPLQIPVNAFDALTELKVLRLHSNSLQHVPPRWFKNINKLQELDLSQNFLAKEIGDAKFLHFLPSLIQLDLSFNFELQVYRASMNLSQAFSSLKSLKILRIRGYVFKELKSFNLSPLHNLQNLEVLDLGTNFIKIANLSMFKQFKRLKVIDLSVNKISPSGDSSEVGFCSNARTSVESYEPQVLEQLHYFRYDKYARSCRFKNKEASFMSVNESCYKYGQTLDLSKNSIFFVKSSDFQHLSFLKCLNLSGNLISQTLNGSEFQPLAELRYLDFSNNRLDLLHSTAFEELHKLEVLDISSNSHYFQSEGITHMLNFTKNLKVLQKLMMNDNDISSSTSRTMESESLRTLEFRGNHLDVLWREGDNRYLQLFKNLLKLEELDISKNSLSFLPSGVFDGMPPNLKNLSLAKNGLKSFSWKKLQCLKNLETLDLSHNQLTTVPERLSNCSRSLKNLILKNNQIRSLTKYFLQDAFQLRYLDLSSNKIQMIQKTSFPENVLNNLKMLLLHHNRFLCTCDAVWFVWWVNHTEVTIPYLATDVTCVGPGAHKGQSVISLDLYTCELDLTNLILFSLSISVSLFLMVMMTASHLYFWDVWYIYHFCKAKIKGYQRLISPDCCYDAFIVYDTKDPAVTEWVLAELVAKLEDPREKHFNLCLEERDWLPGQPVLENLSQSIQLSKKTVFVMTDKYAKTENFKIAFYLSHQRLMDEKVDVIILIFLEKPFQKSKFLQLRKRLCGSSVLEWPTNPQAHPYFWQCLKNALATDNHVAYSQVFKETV
The experiment can be described thus: (§1) Agonist activity at TLR7 (unknown origin). The settings on record: filed as agonist.

Experiment [2] addresses T2, Toll-like receptor 8 (Homo sapiens) (UniProt Q9NR97).
T2 sequence (whole entry): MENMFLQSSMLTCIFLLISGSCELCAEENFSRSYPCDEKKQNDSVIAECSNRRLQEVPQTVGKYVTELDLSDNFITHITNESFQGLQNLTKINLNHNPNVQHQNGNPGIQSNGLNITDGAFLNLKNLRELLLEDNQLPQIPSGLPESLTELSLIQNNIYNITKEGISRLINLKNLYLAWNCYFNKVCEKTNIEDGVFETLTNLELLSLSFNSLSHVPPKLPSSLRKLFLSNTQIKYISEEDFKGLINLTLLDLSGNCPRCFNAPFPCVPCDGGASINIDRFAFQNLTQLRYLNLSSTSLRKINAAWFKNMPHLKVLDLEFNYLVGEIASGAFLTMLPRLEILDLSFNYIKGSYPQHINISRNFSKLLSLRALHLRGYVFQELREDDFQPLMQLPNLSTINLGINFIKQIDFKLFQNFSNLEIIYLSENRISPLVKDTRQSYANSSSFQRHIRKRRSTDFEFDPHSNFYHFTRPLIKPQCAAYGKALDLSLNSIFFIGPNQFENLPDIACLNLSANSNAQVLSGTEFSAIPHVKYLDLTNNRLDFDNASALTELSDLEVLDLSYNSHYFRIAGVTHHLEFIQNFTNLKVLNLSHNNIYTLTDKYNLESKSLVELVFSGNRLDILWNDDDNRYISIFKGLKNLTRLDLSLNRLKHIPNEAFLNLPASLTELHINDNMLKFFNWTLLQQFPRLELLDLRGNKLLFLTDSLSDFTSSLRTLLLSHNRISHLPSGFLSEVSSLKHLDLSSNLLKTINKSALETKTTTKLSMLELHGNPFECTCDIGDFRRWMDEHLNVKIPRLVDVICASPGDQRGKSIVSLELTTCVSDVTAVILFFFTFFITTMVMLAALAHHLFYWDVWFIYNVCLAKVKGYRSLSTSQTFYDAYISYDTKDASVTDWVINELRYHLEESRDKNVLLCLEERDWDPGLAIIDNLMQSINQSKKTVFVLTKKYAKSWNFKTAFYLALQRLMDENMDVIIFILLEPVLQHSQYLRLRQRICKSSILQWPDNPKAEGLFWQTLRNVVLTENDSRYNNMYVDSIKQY
The experiment can be described thus: (§2) Agonist activity at TLR8 (unknown origin).

Experiment [3] concerns the target T3, Toll-like receptor 8 (Homo sapiens, UniProt Q9NR97).
T3 sequence (Q9NR97 whole entry): T2 sequence (whole entry)
Put plainly: Agonist activity at human TLR8 in HEK-Blue hTLR8 cells assessed as induction of SEAP production using nitrophenyl phosphate as substrate incubated for 20 hrs by microplate reader analysis. Format: cell-based.

Experiment [4] concerns the target T4, Toll-like receptor 7 (Homo sapiens, UniProt Q9NYK1).
T4 sequence (Q9NYK1 whole entry): T1 sequence (whole entry)
The experiment can be described thus: Agonist activity at recombinant human TLR7 transfected in HEK293 cells assessed as induction of SEAP production incubated overnight by SEAP reporter gene based assay. Format: cell-based.

The target in experiment [5] is T1, Toll-like receptor 7 (Homo sapiens). The experiment can be described thus: Agonist activity at human TLR7 transfected in HEK293 cells incubated for 6 hrs by luciferase based analysis. The class given is cell-based. Particulars: filed as agonist.
Experiment [6] concerns the target T2, Toll-like receptor 8 (Homo sapiens). Put plainly: Agonist activity at human TLR8 transfected in HEK293 cells incubated for 6 hrs by luciferase based analysis. Particulars: filed as agonist. Format: cell-based.
For the next experiment, the species on record is Homo sapiens. The experiment can be described thus: Selectivity index, ratio of EC50 for agonist activity at TLR8 (unknown origin) to EC50 for agonist activity at TLR7 (unknown origin).
Experiment [7] deals with T4, Toll-like receptor 7. The experiment is described as §1.
The target of experiment [8] is T3, Toll-like receptor 8. Described as §2.
Experiment [9] concerns the target T3, Toll-like receptor 8. Put plainly: Agonist activity at human TLR8 in HEK-Blue hTLR8 cells incubated for 24 hrs by quanti-blue reagent based analysis. Format: cell-based.
For experiment [10], the target named is T4, Toll-like receptor 7. Put plainly: Agonist activity at human TLR7 in HEK-Blue hTLR7 cells incubated for 24 hrs by quanti-blue reagent based analysis. Format: cell-based.

Turning to `COc1ccc2cc1O/C=C\CCOc1nc(N)c3nc(O)n(c3n1)C2`, the MEC is 2 µM in experiment [1] and over 25 µM in experiment [2].
Broadly, the EC50 is the midpoint of the concentration-response curve. Regarding `CCC[C@@H](CCO)Nc1nc(N)nc(C)c1Cc1ccc(CN(C)CCO)cc1OC`, the results for the EC50 at Toll-like receptor 8 [3] and on Toll-like receptor 7 [4] were 2510 nM and under 5.01 nM, respectively.
On to `COc1cc2cc(c1)O/C=C\CCOc1nc(N)c3nc(O)n(c3n1)C2`, for which the results for the MEC in experiment [1] and in [2] were 0.18 µM and over 25 µM, respectively.
In the case of `CCC[C@@H](CO)Nc1nc(N)nc(C)c1Cc1ccc(CN2CCN(C)CC2)cc1OC`, the EC50 was 100 nM at Toll-like receptor 8 [3] and under 6.31 nM at Toll-like receptor 7 [4].
Take `CCCC[C@@H](CO)Nc1nc(N)nc2ccsc12`: the MEC in experiment [5] is 0.5 µM; in experiment [6], 0.03 µM.
`CCOC(=O)C1=Cc2ccc(-c3cccc(C#N)c3)cc2N=C(N)C1`: in the experiment listed under Homo sapiens, the Ratio EC50 stood at 500. Moreover, the figures for the EC50 at Toll-like receptor 7 [7] and on Toll-like receptor 8 [8] were 30 nM and 15000 nM, respectively.
For `CCCCOc1nc(N)c2[nH]c(C#N)c(Cc3cnc(CN4CCCC4)s3)c2n1`, the EC50 was 293000 nM on Toll-like receptor 8 [9] and 454 nM on Toll-like receptor 7 [10].
In the case of `CCC[C@@H](CO)Nc1nc(N)nc(C)c1Cc1ccc(CN2CCCC2)cc1OC`, the EC50 at Toll-like receptor 8 [3] is 63.1 nM; at Toll-like receptor 7 [4], under 5.89 nM.

The record behind these values is ChEMBL document CHEMBL5244202, “Structural evolution of toll-like receptor 7/8 agonists from imidazoquinolines to imidazoles” (RSC Med Chem, 2021).
